What was measured:
[1] = test system: E. coli ATCC2592; assay: radial diffusion assay against E. coli (G- strain); assay type: cell-based, Escherichia coli; parameters: G- strain halo diameter: unit not given here; conditions: for G- strain halo diameter: radial diffusion, E. coli ATCC2592 approx 2 x 10^6 cfu/mL in 1 % agarose underlay gel, 3.5 mm holes, 100 μL AMP sample, 37 °C 12 h, diameter of clear zone, performed in triplicate, '-' = no zone
Description: (§1) Purified His-EDDIE-AMPs inclusion bodies were refolded by rapid 1:50 dilution in an optimized refolding buffer (500 mM NaCl, 20 mM Tris, 2 mM EDTA, 5 % glycerol, 10 mM DTT, 0.01 % Tween-20, pH 7.5) and incubated at an appropriate temperature without stirring. During refolding, EDDIE restored its correct conformation and self-cleaved at the specific sites, releasing AMPs from the fusion bodies. Renatured protein solution was then clarified by centrifugation at 15,000 x g at 4 °C for 30 min. The insoluble sample was removed by filtering through a 0.45 μm membrane, leaving the AMPs in the supernatant. The supernatants were transferred to a Ni-NTA His-bind column for purification.
(§2) The antimicrobial activities of recombinant AMPs were detected using a radial diffusion assay. E. coli ATCC2592 and M. luteus ACCC11001 were grown on the mid-logarithmic phase and washed. Approximately 2 × 10^6 cfu/mL bacteria were incorporated into a thin (1.2 mm) agarose underlay gel containing 1 % (w/v) agarose. Holes with 3.5 mm diameter were punched into the solidified agarose and were filled with 100 μL of AMP sample. After the plates were incubated at 37 °C for 12 h, the diameter of the clear zone surrounding each well was measured to evaluate the antimicrobial activity. The refolding buffer was used as negative controls. The above assays were performed in triplicate.

[2] = test system: M. luteus ACCC11001; assay: radial diffusion assay against M. luteus (G+ strain); assay type: cell-based, Micrococcus luteus; parameters: G+ strain halo diameter: unit not given here; conditions: for G+ strain halo diameter: radial diffusion, M. luteus ACCC11001 approx 2 x 10^6 cfu/mL in 1 % agarose underlay gel, 3.5 mm holes, 100 μL AMP sample, 37 °C 12 h, diameter of clear zone, performed in triplicate, '-' = no zone
Description: as §1, §2

[3] = test system: S. sclerotiorum; assay: antifungal radial diffusion assay on potato plates; assay type: cell-based, Sclerotinia sclerotiorum; conditions: PDA/potato plates, 200 μL sample beside the fungi, 22 °C 72 h; refolding buffer control
Description: as §1
The antifungal activity of the purified products was assayed using an ultra-sensitive radial diffusion method on thin potato plates (200 g potato, 20 g glucose, 15–20 g agar powder, 1 L double-distilled water) seeded with filamentous fungi. Briefly, 9-cm plates were poured with an underlay potato medium, and S. sclerotiorum on a 1-cm diameter potato medium were seeded on the center of the plates, which were then incubated at 22 °C until hypha grew to 2 cm in diameter. Two hundred microliters of the test sample and negative control (refolding buffer) was placed beside the filamentous fungi, and the plates were incubated at 22 °C for 72 h; the size of the clear area around the filamentous fungi was then measured.

Sequence | G- strain halo diameter [1] | G+ strain halo diameter [2] | growth of the filamentous fungal strain S. sclerotiorum (in words) [3] | antimicrobial activity to Gram negative strains (in words) ([1]; radial diffusion assay, E. coli, refolding buffer as negative control) | antimicrobial activity to Gram positive strains (in words) ([2]; radial diffusion assay, M. luteus, refolding buffer as negative control)
AITCGTVTSSLAPCATLSSSGGEMPPPLCGGCAGVKKLNGMAQTTADRQ [Bn7, recombinant B. napus AMP candidate, 49 aa] | 1.311 |  |  |  | 
ALTCGTVNSNVAPCIGYITQGGPLPGACCTG [Bn27, recombinant B. napus AMP candidate, 31 aa] | 1.756 | 2.044 |  |  | 
ALTCGTVNSNVARALAILPRGDRCPERAAPAKAN [Bn26, recombinant B. napus AMP candidate, 34 aa] | 1.533 | 1.489 |  |  | 
AVTCNNVVGDLYPCLSYVMRGGNAPSTNCCNGVRTLNSQAQTTADRQSVCRCIKNA [Bn21, recombinant B. napus AMP candidate, 56 aa] | 1.711 | 1.867 |  |  | 
CAPNHCCSQFGYCGTNDAHCGAGCKS [Bn29, recombinant B. napus AMP candidate] | 1.7 |  |  |  | 
CASGVGCSQYGYCGNGPDYCG [Bn28, recombinant B. napus AMP candidate, 21 aa] | 0.867 | 1.089 |  |  | 
EQCGRQAGGALCPNGLCCSNLAGAAIPNRIANRPVARASVAA [Bn2, recombinant B. napus AMP candidate, 42 aa] | 1.189 | 1.067 |  |  | 
EQCGRRRVERCSRMAVLCEFGWCGDTEPYCKQTGCQSQCGG [Bn3, recombinant B. napus AMP candidate, 41 aa] | 1.867 | 1.811 |  |  | 
GKPSGSEKDKDKKKQPITRSARAGLQFPVGRVHRLLK [Bn5, recombinant B. napus AMP candidate, 37 aa] | 1.711 | 2.2 |  |  | 
GRKAGGPKNKSVSKSIKAGLQFPVGRITRFLKKGRYAQRLGGERREIRLLTKPE [Bn1, recombinant B. napus AMP candidate, 54 aa] | 1.256 | 1.633 |  |  | 
IQCGKFFSCSEINTCCCLFKCGKYYFGWGCCPLEASTCCDDNTSCCP [Bn22, recombinant B. napus AMP candidate] | 0.433 |  |  |  | 
KECEERSRQSRSFSVICKYDYACQNHCINLEKADGGQCNSRSPTAKCICYFQC [Bn8, recombinant B. napus AMP candidate, 53 aa] | 1.656 | 2.056 |  |  | 
KTCCPTTTARRIFDSCYGPSVPLTFCARISGCHLFPQSTTCPPEFP [Bn18, recombinant B. napus AMP candidate, 46 aa] | 1.978 | 0.107 |  |  | 
KTHEEKSKTYRRLCVDETGCNHACIFNEHFAGGHCRHLECFC [Bn17, recombinant B. napus AMP candidate, 42 aa] | 0.467 | 0.178 |  |  | 
LQFPVGRISRYLKKGRYAIRYGAGAP [Bn30, recombinant B. napus AMP candidate, 26 aa] | 1.289 | 1.4 | grow normally |  | 
NICCSQYGYCGTTADYCSPDNNCQSNC [Bn15, recombinant B. napus AMP candidate, 27 aa] |  | 0.944 |  |  | 
NQCGQFVSGALINTCCCLFKCG [Bn23, recombinant B. napus AMP candidate, 22 aa] | 0.756 | 1.233 |  |  | 
NWCGGKCEVRCKDVGMNDRCLKYCGICCKECKC [Bn20, recombinant B. napus AMP candidate, 33 aa] | 1.489 | 1.089 |  |  | 
PPTQNPSMAPPTQNPYGQPMAPPTQNPYGQPMAPP [Bn19, recombinant B. napus AMP, 35 aa; new member of the proline-rich antimicrobial peptide family, similar to SP-B] | 3.011 | 3.022 |  | highest activities | highest activities
QNCGCAPNLCCSQFGYCGSTDAYRDWLP [Bn25, recombinant B. napus AMP candidate, 28 aa] | 1.567 | 0.367 |  |  | 
RCREASRKKVCYRAGGSCCAKCQCVPPGTSGNTASCPCYANLRTHGNKLKCP [Bn4, recombinant B. napus AMP candidate, 52 aa] | 2.122 | 2.167 |  |  | 
RMCETSSQLFNGPCLSTNCANICQNEGFPDGDCKGFRLRCICNRPC [Bn13, recombinant B. napus AMP candidate, 46 aa] | 2.222 | 1.722 |  |  | 
RTCESRSHRFKGPCVSENNCANVCHT [Bn24, recombinant B. napus AMP candidate, 26 aa] |  | 0.967 |  |  | 
RVCNTQSHHYRGPCWRNHNCAMVCRTEGFSGGDCVGIPRRCYCTKRC [Bn16, recombinant B. napus AMP candidate, 47 aa] |  | 1.322 |  |  | 
VVCDKSYTCPDKSTCCCVSESKGKCDSWGCCPFESATCCENGSSCCP [Bn10, recombinant B. napus AMP candidate, 47 aa] | 1.722 | 1.2 |  |  | 
YVCTRVDCSGRCKGRCNKSSRPNLCLRACNSCCFRCNCVPPPGTHGNHHLRPCYASITT [Bn14, recombinant B. napus AMP candidate, 59 aa] | 2.589 | 2.489 |  |  | 

From publication PMC4557752, “EST-based in silico identification and in vitro test of antimicrobial peptides in Brassica napus” (BMC Genomics, 2015)
